One test has as its target Janus lectin RSL-CBM77Rf. Type of test: binding, Ralstonia nicotianae / Ruminococcus flavefaciens. The note with it: 25 °C; 20 mM Tris pH 7.5, 100 mM NaCl (ligand in 20 mM Tris pH 7.5); site on CBM77Rf part; ligand mainly DP7 with some DP8.
A further test concerns the target T1, diCBM77Rf (Ruminococcus flavefaciens, UniProt A0A1A9TA81).
T1 construct: CBM77 domain only; N-terminal His-tag cut by TEV; E. coli BL21(DE3)
T1 sequence (A0A1A9TA81 2-115): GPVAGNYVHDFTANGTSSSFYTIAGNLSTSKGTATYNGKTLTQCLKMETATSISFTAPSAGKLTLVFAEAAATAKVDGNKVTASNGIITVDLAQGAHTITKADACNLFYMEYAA
The test can be described thus: isothermal titration calorimetry. In kind it is binding. The note with it: 25 °C; 20 mM Tris pH 7.5, 100 mM NaCl (ligand in 20 mM Tris pH 7.5); N fixed at 2 in the fit; no full sigmoid; ligand mainly DP7 with some DP8. The text has this: isothermal titration calorimetry on diCBM77Rf

Molecules are shown by their SMILES.

Turning to `O=C(O)[C@H]1O[C@H](O[C@@H]2[C@H](O)[C@@H](O)[C@@H](O[C@@H]3[C@H](O)[C@@H](O)[C@@H](O[C@@H]4[C@H](O)[C@@H](O)[C@@H](O[C@@H]5[C@H](O)[C@@H](O)[C@@H](O[C@@H]6[C@H](O)[C@@H](O)[C@@H](O[C@@H]7[C@H](O)[C@@H](O)C(O)O[C@@H]7C(=O)O)O[C@@H]6C(=O)O)O[C@@H]5C(=O)O)O[C@@H]4C(=O)O)O[C@@H]3C(=O)O)O[C@@H]2C(=O)O)[C@H](O)[C@@H](O)[C@H]1O` (some centres unmarked) [GalA_DP7], the figures for the equilibrium dissociation constant (Kd) at Janus lectin RSL-CBM77Rf and at diCBM77Rf were 103 ± 15 µM and 1280 ± 100 µM, respectively.

Values taken from article doi:10.1101/2022.07.25.501355v1, “Building artificial plant cell wall on lipid bilayer by assembling polysaccharides and engineered proteins” (biorxiv, 2022).
